The text below walks through data of paper PMC9217908, “Screening of commonly prescribed drugs for effects on the CAT1-mediated transport of L-arginine and arginine derivatives” (Amino Acids, 2022).

In one experiment the target is T1, CAT1 (cationic amino acid transporter 1, CAT1/SLC7A1) (Homo sapiens, UniProt P30825).
T1 construct: full-length human transporter stably transfected in HEK cells (HEK-CAT1); net uptake against HEK-VC vector control cells
T1 sequence (P30825 whole entry): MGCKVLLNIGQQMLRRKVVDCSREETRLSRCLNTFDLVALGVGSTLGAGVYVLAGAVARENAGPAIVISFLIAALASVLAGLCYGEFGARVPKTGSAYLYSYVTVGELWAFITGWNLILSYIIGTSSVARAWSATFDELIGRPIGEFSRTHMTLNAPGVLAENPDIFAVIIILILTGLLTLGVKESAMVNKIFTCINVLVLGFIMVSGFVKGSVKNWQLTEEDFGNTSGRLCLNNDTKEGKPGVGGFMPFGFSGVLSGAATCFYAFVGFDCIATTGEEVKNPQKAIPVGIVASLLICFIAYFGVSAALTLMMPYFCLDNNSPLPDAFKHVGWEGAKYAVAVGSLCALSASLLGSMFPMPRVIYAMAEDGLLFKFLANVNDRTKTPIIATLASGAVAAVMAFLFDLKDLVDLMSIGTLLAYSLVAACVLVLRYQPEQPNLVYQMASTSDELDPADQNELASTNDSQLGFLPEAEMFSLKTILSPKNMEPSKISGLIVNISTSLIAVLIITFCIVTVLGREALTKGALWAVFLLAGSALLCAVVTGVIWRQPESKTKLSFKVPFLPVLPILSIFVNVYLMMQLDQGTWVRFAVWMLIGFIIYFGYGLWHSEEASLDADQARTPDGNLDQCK
The experiment in a line: cell-based. The arrangement: species or system HEK-CAT1 (HEK293 stably transfected); Inhibition of net CAT1-mediated [3H]-L-arginine (100 uM) uptake, 5 min, scintillation counting, vector control subtracted. Particulars: HEK293; L-arginine 100 uM as substrate; read-out: % Inhibition of L-arginine uptake at 20 µM. As for the experimental part:
(§1) Uptake and inhibition assays using HEK-CAT1 and HEK-VC cells and L-arginine, L-homoarginine, and ADMA as substrates were performed using the protocol described (Strobel et al. [2012]; Chafai et al. [2017]). Briefly, after incubation, the supernatant was replaced with transport buffer containing [^3H]- L-arginine for 5 min and 2.5 min for medium containing [^3H]-L-homoarginine or [^3H]-ADMA with or without the test compound. The reference drugs were screened at concentrations of 20 µM (Figs. 1A, 2A, and 3A) and 200 µM (Figs. 1B, 2B, and 3B). […] The net uptake was determined by subtracting the total amount taken up by control cells from the amount taken up by CAT1-expressing cells, which was expressed as a percentage of the amount taken up by the control. To determine the inhibitory effects of the drugs on CAT1-mediated transport of L-arginine, L-homoarginine, or ADMA, the control was measured in the absence of the potential inhibitor. The value for the percent inhibition was calculated as: Inhibition (%) = 100 – (V/V0 ^* 100), where V and V0 are the net uptake rates (uptake into HEK-CAT1 cells—uptake into HEK-VC cells) with and without test drugs, respectively. […] Each bar represents the effect of one compound on CAT1-mediated L-arginine (100 μM) uptake as percent inhibition. Data were obtained from at least two independent experiments performed in triplicate (n = 6–9) and each test data from the independent experiment were normalized to the respective control data to get the value of percent inhibition. Negative inhibition values indicate stimulated CAT1-mediated uptake. Data were analyzed using one-way ANOVA and Dunnett’s multiple comparison test with p < 0.05. Bars showing a statistically significant inhibition or transport stimulation are shaded in black
On to `CCOC(=O)[C@H](CCc1ccccc1)N[C@H]1CCc2ccccc2N(CC(=O)O)C1=O` [Benazepril], for which the inhibition at 20 µM is 1.1 ± 4.5%.
On the same count and under the same terms, under `CCc1oc2ccccc2c1C(=O)c1cc(Br)c(O)c(Br)c1` [Benzbromarone] stands -12.4 ± 6.1%; under `C[C@]12CC[C@@H]3c4ccc(O)cc4CC[C@H]3[C@@H]1CC[C@@H]2O` [Beta estradiol], 0.3 ± 4.5%; under `CC(C)NCC(O)COc1ccc(COCCOC(C)C)cc1` (stereo not drawn) [Bisoprolol], -13.1 ± 0.7%.
On the same count and under the same terms, under `CCCC1O[C@@H]2C[C@H]3[C@@H]4CCC5=CC(=O)C=C[C@]5(C)[C@H]4[C@@H](O)C[C@]3(C)[C@]2(C(=O)CO)O1` (stereo partly drawn) [Budesonide] stands -9.7 ± 7.8%; under `CCCCNc1cc(C(=O)O)cc(S(N)(=O)=O)c1Oc1ccccc1` [Bumetanide], 9 ± 4%.
As to `CCOc1nc2cccc(C(=O)O)c2n1Cc1ccc(-c2ccccc2-c2nnn[nH]2)cc1` [Candesartan], the inhibition at 20 µM came to 14.5 ± 2.4%.
Same read-out and setting: under `C[C@H](CS)C(=O)N1CCC[C@H]1C(=O)O` [Captopril] stands 0.6 ± 4.7%; under `NC(=O)N1c2ccccc2C=Cc2ccccc21` [Carbamazepine], 17.8 ± 4.1%; under `COc1ccccc1OCCNCC(O)COc1cccc2[nH]c3ccccc3c12` (stereo not drawn) [Carvedilol], -14.1 ± 1.5%.
Still for that read-out and setting: the value for `CO/N=C(\C(=O)N[C@@H]1C(=O)N2C(C(=O)O)=C(COC(N)=O)CS[C@H]12)c1ccco1` [Cefuroxime] was 17.3 ± 3.5%.

Still in this experiment, the particulars now being: HEK293; L-arginine 100 uM as substrate; read-out: % Inhibition of L-arginine uptake at 200 µM.
For the molecule `CCOC(=O)[C@H](CCc1ccccc1)N[C@H]1CCc2ccccc2N(CC(=O)O)C1=O` [Benazepril], the inhibition at 200 µM was determined as 2.7 ± 6%.
Same read-out and setting: under `CCc1oc2ccccc2c1C(=O)c1cc(Br)c(O)c(Br)c1` [Benzbromarone] stands -31.3 ± 4.9%; under `C[C@]12CC[C@@H]3c4ccc(O)cc4CC[C@H]3[C@@H]1CC[C@@H]2O` [Beta estradiol], -19.1 ± 7.2%; under `CC(C)NCC(O)COc1ccc(COCCOC(C)C)cc1` (stereo not drawn) [Bisoprolol], -17.2 ± 15.5%.
Still for that read-out and setting: under `CCCC1O[C@@H]2C[C@H]3[C@@H]4CCC5=CC(=O)C=C[C@]5(C)[C@H]4[C@@H](O)C[C@]3(C)[C@]2(C(=O)CO)O1` (stereo partly drawn) [Budesonide] stands -6.4 ± 3.9%.
Still for that read-out and setting: the value for `CCCCNc1cc(C(=O)O)cc(S(N)(=O)=O)c1Oc1ccccc1` [Bumetanide] was -10.1 ± 1.7%; that for `CCOc1nc2cccc(C(=O)O)c2n1Cc1ccc(-c2ccccc2-c2nnn[nH]2)cc1` [Candesartan] was -18.8 ± 2.4%; that for `C[C@H](CS)C(=O)N1CCC[C@H]1C(=O)O` [Captopril] was -15.1 ± 13.1%.
With `NC(=O)N1c2ccccc2C=Cc2ccccc21` [Carbamazepine], the inhibition at 200 µM was found to be 0.7 ± 4.3%.
Still for that read-out and setting: under `COc1ccccc1OCCNCC(O)COc1cccc2[nH]c3ccccc3c12` (stereo not drawn) [Carvedilol] stands 0.2 ± 3.5%; under `CO/N=C(\C(=O)N[C@@H]1C(=O)N2C(C(=O)O)=C(COC(N)=O)CS[C@H]12)c1ccco1` [Cefuroxime], -9.8 ± 8.4%.

A further experiment addresses T1, CAT1 (cationic amino acid transporter 1, CAT1/SLC7A1). As to the kind of experiment: cell-based. Details: species or system HEK-CAT1 (HEK293 stably transfected); Inhibition of net CAT1-mediated [3H]-L-homoarginine (1 uM) uptake, 2.5 min, scintillation counting, vector control subtracted. The following applies: HEK293; L-homoarginine 1 uM as substrate; read-out: % Inhibition of L-homoarginine uptake at 20 µM. As to the method:
as §1, with “L-homoarginine (1” for “L-arginine (100”
For `CCOC(=O)[C@H](CCc1ccccc1)N[C@H]1CCc2ccccc2N(CC(=O)O)C1=O` [Benazepril], the inhibition at 20 µM amounted to 1.1 ± 4.5%.
Still for that read-out and setting: under `CCc1oc2ccccc2c1C(=O)c1cc(Br)c(O)c(Br)c1` [Benzbromarone] stands -10.8 ± 5.3%; under `C[C@]12CC[C@@H]3c4ccc(O)cc4CC[C@H]3[C@@H]1CC[C@@H]2O` [Beta estradiol], -0.1 ± 4.2%.
On the same count and under the same terms, the value for `CC(C)NCC(O)COc1ccc(COCCOC(C)C)cc1` (stereo not drawn) [Bisoprolol] was -11.1 ± 1.9%; that for `CCCC1O[C@@H]2C[C@H]3[C@@H]4CCC5=CC(=O)C=C[C@]5(C)[C@H]4[C@@H](O)C[C@]3(C)[C@]2(C(=O)CO)O1` (stereo partly drawn) [Budesonide] was -9.7 ± 5.5%.
Same read-out and setting: the value for `CCCCNc1cc(C(=O)O)cc(S(N)(=O)=O)c1Oc1ccccc1` [Bumetanide] was 8.9 ± 4.1%.
On to `CCOc1nc2cccc(C(=O)O)c2n1Cc1ccc(-c2ccccc2-c2nnn[nH]2)cc1` [Candesartan], for which the inhibition at 20 µM turned out to be 12.6 ± 2.2%.
On the same count and under the same terms, under `C[C@H](CS)C(=O)N1CCC[C@H]1C(=O)O` [Captopril] stands 0.1 ± 4.5%; under `NC(=O)N1c2ccccc2C=Cc2ccccc21` [Carbamazepine], 18.9 ± 3.5%; under `COc1ccccc1OCCNCC(O)COc1cccc2[nH]c3ccccc3c12` (stereo not drawn) [Carvedilol], -11.2 ± 0.9%.
Regarding `CO/N=C(\C(=O)N[C@@H]1C(=O)N2C(C(=O)O)=C(COC(N)=O)CS[C@H]12)c1ccco1` [Cefuroxime], the inhibition at 20 µM was found to be 16.8 ± 1.6%.

The same experiment, now with this note: HEK293; L-homoarginine 1 uM as substrate; read-out: % Inhibition of L-homoarginine uptake at 200 µM.
On to `CCOC(=O)[C@H](CCc1ccccc1)N[C@H]1CCc2ccccc2N(CC(=O)O)C1=O` [Benazepril], for which the inhibition at 200 µM was 5.8 ± 2.4%.
On the same count and under the same terms, the value for `CCc1oc2ccccc2c1C(=O)c1cc(Br)c(O)c(Br)c1` [Benzbromarone] was -23.2 ± 1.6%.
For `C[C@]12CC[C@@H]3c4ccc(O)cc4CC[C@H]3[C@@H]1CC[C@@H]2O` [Beta estradiol], the inhibition at 200 µM was -13.7 ± 11.3%.
Still for that read-out and setting: the value for `CC(C)NCC(O)COc1ccc(COCCOC(C)C)cc1` (stereo not drawn) [Bisoprolol] was -14.9 ± 2.5%; that for `CCCC1O[C@@H]2C[C@H]3[C@@H]4CCC5=CC(=O)C=C[C@]5(C)[C@H]4[C@@H](O)C[C@]3(C)[C@]2(C(=O)CO)O1` (stereo partly drawn) [Budesonide] was -4.9 ± 6.5%.
On the same count and under the same terms, under `CCCCNc1cc(C(=O)O)cc(S(N)(=O)=O)c1Oc1ccccc1` [Bumetanide] stands -8.6 ± 1.9%.
On the same count and under the same terms, under `CCOc1nc2cccc(C(=O)O)c2n1Cc1ccc(-c2ccccc2-c2nnn[nH]2)cc1` [Candesartan] stands -12.6 ± 3.8%.
As for `C[C@H](CS)C(=O)N1CCC[C@H]1C(=O)O` [Captopril], the inhibition at 200 µM is -15.9 ± 3%.
Still for that read-out and setting: the value for `NC(=O)N1c2ccccc2C=Cc2ccccc21` [Carbamazepine] was 12.7 ± 3.9%; that for `COc1ccccc1OCCNCC(O)COc1cccc2[nH]c3ccccc3c12` (stereo not drawn) [Carvedilol] was -1.4 ± 7.7%.
In the case of `CO/N=C(\C(=O)N[C@@H]1C(=O)N2C(C(=O)O)=C(COC(N)=O)CS[C@H]12)c1ccco1` [Cefuroxime], the inhibition at 200 µM was -8.5 ± 5.9%.

For another experiment the target is unchanged. As to the kind of experiment: cell-based. The following applies: HEK293; ADMA 1 uM as substrate; read-out: % Inhibition of ADMA uptake at 20 µM. Details: species or system HEK-CAT1 (HEK293 stably transfected); Inhibition of net CAT1-mediated [3H]-ADMA (1 uM) uptake, 2.5 min, scintillation counting, vector control subtracted. As to the method:
as §1, with “ADMA (1” for “L-arginine (100”
As to `CCOC(=O)[C@H](CCc1ccccc1)N[C@H]1CCc2ccccc2N(CC(=O)O)C1=O` [Benazepril], the inhibition at 20 µM is 28.7 ± 4.6%.
As to `CCc1oc2ccccc2c1C(=O)c1cc(Br)c(O)c(Br)c1` [Benzbromarone], the inhibition at 20 µM is -6.9 ± 4.6%.
Same read-out and setting: the value for `C[C@]12CC[C@@H]3c4ccc(O)cc4CC[C@H]3[C@@H]1CC[C@@H]2O` [Beta estradiol] was -9.8 ± 7.2%.
`CC(C)NCC(O)COc1ccc(COCCOC(C)C)cc1` (stereo not drawn) [Bisoprolol]: the inhibition at 20 µM is -2.8 ± 1.6%.
The same measure, in the same setting: the value for `CCCC1O[C@@H]2C[C@H]3[C@@H]4CCC5=CC(=O)C=C[C@]5(C)[C@H]4[C@@H](O)C[C@]3(C)[C@]2(C(=O)CO)O1` (stereo partly drawn) [Budesonide] was -13.2 ± 3.7%; that for `CCCCNc1cc(C(=O)O)cc(S(N)(=O)=O)c1Oc1ccccc1` [Bumetanide] was -2.8 ± 6.2%; that for `CCOc1nc2cccc(C(=O)O)c2n1Cc1ccc(-c2ccccc2-c2nnn[nH]2)cc1` [Candesartan] was -11.1 ± 0.9%.
The same measure, in the same setting: the value for `C[C@H](CS)C(=O)N1CCC[C@H]1C(=O)O` [Captopril] was 0.5 ± 2.1%; that for `NC(=O)N1c2ccccc2C=Cc2ccccc21` [Carbamazepine] was 4.8 ± 2.1%.
Still for that read-out and setting: under `COc1ccccc1OCCNCC(O)COc1cccc2[nH]c3ccccc3c12` (stereo not drawn) [Carvedilol] stands -1.1 ± 3.1%.
Regarding `CO/N=C(\C(=O)N[C@@H]1C(=O)N2C(C(=O)O)=C(COC(N)=O)CS[C@H]12)c1ccco1` [Cefuroxime], the inhibition at 20 µM is -7.1 ± 2.9%.

The same experiment, now with this note: HEK293; ADMA 1 uM as substrate; read-out: % Inhibition of ADMA uptake at 200 µM.
In the case of `CCOC(=O)[C@H](CCc1ccccc1)N[C@H]1CCc2ccccc2N(CC(=O)O)C1=O` [Benazepril], the inhibition at 200 µM turned out to be 3.1 ± 3.8%.
Same read-out and setting: under `CCc1oc2ccccc2c1C(=O)c1cc(Br)c(O)c(Br)c1` [Benzbromarone] stands -13.2 ± 5.9%.
In the case of `C[C@]12CC[C@@H]3c4ccc(O)cc4CC[C@H]3[C@@H]1CC[C@@H]2O` [Beta estradiol], the inhibition at 200 µM is -32.9 ± 6.4%.
The same measure, in the same setting: the value for `CC(C)NCC(O)COc1ccc(COCCOC(C)C)cc1` (stereo not drawn) [Bisoprolol] was 16.2 ± 4.2%; that for `CCCC1O[C@@H]2C[C@H]3[C@@H]4CCC5=CC(=O)C=C[C@]5(C)[C@H]4[C@@H](O)C[C@]3(C)[C@]2(C(=O)CO)O1` (stereo partly drawn) [Budesonide] was -47.7 ± 6.5%; that for `CCCCNc1cc(C(=O)O)cc(S(N)(=O)=O)c1Oc1ccccc1` [Bumetanide] was -9.7 ± 5.6%.
For the molecule `CCOc1nc2cccc(C(=O)O)c2n1Cc1ccc(-c2ccccc2-c2nnn[nH]2)cc1` [Candesartan], the inhibition at 200 µM amounted to 8.1 ± 3.1%.
`C[C@H](CS)C(=O)N1CCC[C@H]1C(=O)O` [Captopril]: the inhibition at 200 µM was -19.6 ± 2.2%.
The same measure, in the same setting: under `NC(=O)N1c2ccccc2C=Cc2ccccc21` [Carbamazepine] stands 12.8 ± 4.2%.
Still for that read-out and setting: the value for `COc1ccccc1OCCNCC(O)COc1cccc2[nH]c3ccccc3c12` (stereo not drawn) [Carvedilol] was -7.8 ± 7.1%; that for `CO/N=C(\C(=O)N[C@@H]1C(=O)N2C(C(=O)O)=C(COC(N)=O)CS[C@H]12)c1ccco1` [Cefuroxime] was -11.5 ± 2.8%.

What is called inhibition is the relative decrease from the control value, in per cent.
